Results published in US11175294B2, “Protein composition and methods for analysing microbiota” (UNIVERSITY OF OTTAWA, priority 2016, dated 2021).

Legend:
[1] = test system: Akkermansia genus species in cultured microbiome; test: RapidAIM assay of an individual microbiome treated with berberine, species-level taxonomic quantification on MetaLab; format: cell-based; details: high concentration vs sample cultured without drug treatment
Description: Developing RapidAIM in a multi-well plate format: microbiota can be inoculated and grown in culture media. Assays, performed in any multiwall format (e.g. 6 well to 96 well plate formats, or any other type of format, for example, using tubes) and can be titrated, examining at each stage whether the yield per well provides sufficient material for downstream analyses. The analysis can be performed using a workflow for metaproteome as described in Zhang et al. “MetaPro-IQ: a universal metaproteomic approach to studying human and mouse gut microbiota”, Microbiome, 2016 Jun. 24:4(1):31, doi: 10.1186/s40168-016-0176-z. The workflow uses the close-to-complete human or mouse gut microbial gene catalog as a database and uses an iterative database search strategy. An example of a high-through put experimental workflow for the RapidAIM has been established based on a 96-well format (FIG. 9). This workflow includes, (A) 96-well based microbiome culturing, and (B) 96-well based metaproteomics analysis.
As an example, RapidAIM was used to assay an individual a microbiome treated with a high, medium or low dose of berberine compared to the sample cultured without drug treatment (FIG. 10). The taxonomic composition at the species level were quantified in each of the cultured microbiome sample on the MetaLab bioinformatics platform.

human microbiota = test: SILAMi-based metaproteomics of microbiota cultured with or without monosaccharides; format: cell-based; details: 2.5 g/L monosaccharide vs non-treated control; for overall effect on the metaproteome: 3,158 quantified proteins
Description: Finally, it was tested whether the […] labelled-standard could be used to distinguish the effects of different monosaccharides on the microbiota. It will be understood that monosaccharides are used herein as an example of a compound that may have an effect on the microbiota. However, other compounds that have be introduced to a microbiota sample or to a subject of which a microbiota sample has been obtained, that may impact the microbiota, may be similarly analyzed as described herein. Overall, 18 samples cultured with or without 2.5 g/L of each monosaccharide (N-acetyl glucosamine or GlcNAc, mannose, galactose, fucose, or glucose) were analyzed, by […]-based metaproteomics which led to 3,158 quantified proteins. Two hundred and forty-six protein groups were identified as being differentially abundant as compared to the non-treated control group (Table 4): […]

Akkermansia spp = details: reported in other literature; cited from earlier work

COc1ccc2cc3[n+](cc2c1OC)CCc1cc2c(cc1-3)OCO2 [Berberine]
abundances of the species originating from the Akkermansia genus [1]: significantly increased

CC(=O)N[C@H]1C(O)O[C@H](CO)[C@@H](O)[C@@H]1O (some centres unmarked) [GlcNAc, N-acetyl glucosamine]
change of GlcNAc degrading proteins (human microbiota): significant increase
change of asparagine synthase (human microbiota): significantly increased
overall effect on the metaproteome (human microbiota): most dramatic alterations of the metaproteome

CN(C)C(=N)N=C(N)N [Metformin]
Akkermansia spp in the gut microbiome (Akkermansia spp): increased

C[C@H](O)[C@@H](O)[C@@H](O)[C@H](O)C=O [fucose]
change of cluster 206, mainly fucose utilization-related proteins (human microbiota): increased only in the fucose-treated microbiota
change of quantified fucose utilizing proteins in the fucose utilization pathway (human microbiota): all of the six quantified fucose utilizing proteins in the fucose utilization pathway were increased
overall effect on the metaproteome (human microbiota): smallest effect on the metaproteome
